Article PMC11280343, “Rubus urticifolius Compounds with Antioxidant Activity, and Inhibition Potential against Tyrosinase, Melanin, Hyaluronidase, Elastase, and Collagenase” (Pharmaceuticals, 2024)
Where “and” joins values, the source holds several entries; their conditions need not be identical. Equal values may be shown once. Read-outs that look alike come from different tables or passages of the source. Numbered stars: 1 amine (or outer) side, 2 acyl side, 3 side chain; on linkers, the order of the positions; unused ones are H or OH. Bridge positions count the residues as written; N and C are the ends. Square brackets hold non-standard residues; d marks the D form. Peptide text beside a SMILES is read from it. I, II: the chains in the order shown. Actinocin(9to1) = Cc1c2oc3c(C)ccc(C(=O)[*:1])c3nc-2c(C(=O)[*:2])c(N)c1=O; NMeV = CN[C@H](C(=O)O)C(C)C; Sar = CNCC(=O)O

What was measured:
[1] = NR viability assay, HEK001; type: cell-based, Homo sapiens; details: human; HEK001, NR assay, 72 h; read-out: Viability CC50
Method: (§1) The HEK001 (Homo sapiens cutaneous keratinocyte, CCL-2404), WS1 (Homo sapiens cutaneous fibroblast, CRL-1502), HMCB (Homo sapiens cutaneous melanoma, CRL-9607), and THP-1 (Homo sapiens peripheral blood monocyte, TIB-202) cell lines used in this study were obtained from the American Type Culture Collection (ATCC, Manassas, VA, USA). Cultivated in a Roswell Park Memorial Institute (RPMI) 1640 medium (RPMI 1640 Merck, Cat. No. R7755, New York, NY, USA) supplemented with 2 mM L-glutamine (≥99% Merck, Cat. No. 56-85-9), 10% fetal bovine serum (FBS Merck, Cat. No. TMS-016, St. Louis, MO, USA), and 10,000 units of penicillin and 10 mg streptomycin/mL (Merck, Cat. No. P4333, St. Louis, MO, USA) in culture flasks, the cells were maintained in an incubator under normoxic conditions (20–21% O2) and a humidified atmosphere (5% CO2 at 37 °C).
(§2) Mother solutions of samples (extracts, fractions, and compounds) were prepared at a concentration of […] using dimethyl sulfoxide (DMSO ≥ 99.9% Merck, Cat. No. 67-68-5, St. Louis, MO, USA) as the solvent. From these mother solutions, dilutions were prepared at concentrations ranging from 100 to 0.20 μg/mL or μM in culture medium containing 0.5% DMSO. Additionally, a negative control group consisting solely of culture medium with 0.5% DMSO was included to assess its potential cytotoxic effect on the cells.
(§3) Cell viability was evaluated using a colorimetric assay in 96-well plates, employing 3-amino-7-dimethylamino-2-methylphenazine hydrochloride salt reagent (NR, Merck, Cat. No. 553-24-2, St. Louis, MO, USA).
(§4) HEK001, WS1, HMCB, and THP-1 cell lines were cultured in 96-well plates at 37 °C with 5% CO2 until > 90% confluency was achieved (1 × 10^6 cells/well). Subsequently, the cultures were treated with sample dilutions (100–0.20 μg/mL or μM) for 72 h at 37 °C with 5% CO2 in phenol red-free RPMI. The supernatant was then discarded and the cells were washed with phosphate-buffered saline (PBS) before being incubated with […] NR (50 μg/mL; 173 μM) for 3 h at 37 °C with 5% CO2. NR labelling was performed after DMSO treatment. After incubation, the labelled sample dilutions were rapidly washed with a fixative solution composed of 1% calcium chloride (CaCl2 Merck, Cat. No. 10043-52-4, St. Louis, MO, USA) and 0.5% formaldehyde solution (≥36.0% in H2O Merck, Cat. No. 50-00-0, St. Louis, MO, USA), then diluted with 100 μL of the NR extraction solution. Finally, the plates were read at 540 nm using a microplate reader (Anthos 2020, version 2.0.5, Biochrom Ltd., Cambridge, UK).

[2] = NR viability assay, THP-1; type: cell-based, Homo sapiens; details: human, THP-1, NR assay, 72 h; read-out: Viability CC50
Method: as §1, §2, §3, §4

NR viability assay, HMCB = type: cell-based, Homo sapiens; details: human; HMCB, NR assay, 72 h; read-out: Viability CC50
Method: as §1, §2, §3, §4

[3] = test system: HEK001, WS1, HMCB, and THP-1 cell lines; experiment: Viability assay, positive control value of the method (cell line not stated); type: cell-based; details: Homo sapiens
Method: as §3, §4

NR viability assay, WS1 = type: cell-based, Homo sapiens; details: human; WS1, NR assay, 72 h; read-out: Viability CC50
Method: as §1, §2, §3, §4

Nrf2 [4] = experiment: Nrf2 activation assay, positive control value of the method (cell line not stated); type: cell-based; details: Homo sapiens
Method: (§5) To determine the antioxidant response of the samples (at the same concentration as in the viability assay), Nrf2 activation assay was used, following the protocol carried out by Apaza Ticona et al.. Cells were cultured in 96-well plates (1 × 10^6 cells/well). […] Absorbance was measured at 540 nm using a microplate reader.

Nrf2 [5] = experiment: Nrf2 activation assay, THP-1; type: cell-based; details: Homo sapiens, THP-1, 72 h; read-out: Activation of Nrf2 production EC50
Method: as §5

Nrf2 [6] = experiment: Nrf2 activation assay, HMCB; type: cell-based; details: Homo sapiens, 72 h, read-out: Activation of Nrf2 production EC50
Method: as §5

Nrf2 [7] = experiment: Nrf2 activation assay, HEK001; type: cell-based; details: Homo sapiens, HEK001, 72 h; read-out: Activation of Nrf2 production EC50
Method: as §5

Nrf2 [8] = experiment: Nrf2 activation assay, WS1; type: cell-based; details: Homo sapiens; WS1, 72 h; read-out: Activation of Nrf2 production EC50
Method: as §5

NF-κB [9] = experiment: NF-κB inhibition assay, positive control value of the method (cell line not stated); type: cell-based; details: Homo sapiens
Method: (§6) To determine the anti-inflammatory activity of the samples (at the same concentration as in the viability assay), NF-κB inhibition assay was used, following the protocol carried out by Apaza Ticona et al.. Cells were cultured in 96-well plates (1 × 10^6 cells/well). […] Absorbance was measured at 450 nm using a microplate reader.

NF-κB [10] = experiment: NF-κB inhibition assay (LPS-stimulated), HMCB; type: cell-based; details: Homo sapiens, 72 h, read-out: NF-κB Inhibition at 72 h IC50 ± SEM
Method: as §6

NF-κB [11] = experiment: NF-κB inhibition assay (LPS-stimulated), HEK001; type: cell-based; details: Homo sapiens, HEK001, 72 h, read-out: NF-κB Inhibition at 72 h IC50 ± SEM
Method: as §6

NF-κB [12] = experiment: NF-κB inhibition assay (LPS-stimulated), WS1; type: cell-based; details: Homo sapiens, 72 h, read-out: NF-κB Inhibition at 72 h IC50 ± SEM
Method: as §6

NF-κB [13] = experiment: NF-κB inhibition assay (LPS-stimulated), THP-1; type: cell-based; details: Homo sapiens, THP-1, 72 h, read-out: NF-κB Inhibition at 72 h IC50 ± SEM
Method: as §6

collagenase = experiment: Collagenase inhibitory assay; type: biochemical
Method: A fixed weight of 1 mg of azo dye-impregnated collagen was measured in the test tubes. Subsequently, 800 μL of 0.1 M Tris-HCl (pH 7) and 100 μL of the samples at the same concentrations used as in the viability assay were added to each test tube. Next, 100 μL of collagenase (200 units/mL) was immediately mixed into the mixture and the tubes were incubated at 43 °C for 1 h. After incubation, the test tubes were centrifuged at 3000 rpm for 10 min. The supernatant from each tube was transferred into 96-well plates and the absorbance of each supernatant was measured at 550 nm using a microplate reader.

[14] = biological target: T1, elastase from porcine pancreas (Sus scrofa, UniProt P00772); experiment: Elastase-inhibitory effect assay; type: biochemical
T1 construct: elastase from porcine pancreas (7.5 units/mL); from tissue; host or cells: porcine pancreas
Method: The elastase-inhibitory effect was evaluated, implementing the protocol adapted from Tu and Tawata.
A mixture containing N-succinyl-Ala-Ala-Ala-p-nitroanilide (AAAPVN, Merck, Cat. No. 52299-14-6, St. Louis, MO, USA) elastase substrate in 0.1232 M Tris-HCl buffer solution (pH 8) was prepared to achieve a concentration of 1.015 mM. This elastase substrate was combined with 10 μL of the test samples at the same concentrations used as in the viability assay in 96-well plates and pre-incubated at room temperature (25 ± 5 °C) for 10 min. Subsequently, the reaction was initiated by adding 10 μL of elastase from porcine pancreas (7.5 units/mL) in Tris buffer solution to the pre-incubated mixtures. Absorbance was then measured at 410 nm using a microplate reader.

[15] = test system: melanin production in HMCB cells; experiment: Melanin content assay; type: cell-based; details: Homo sapiens; HMCB cells, 12 h; read-out: Inhibitory activity of melanin production IC50
Method: To determine the anti-melanogenic activity of the samples (at the same concentration as in the viability assay), melanin inhibition assay was used, following the protocol carried out by Apaza Ticona et al.. HMCB cells were cultured in 96-well plates (1 × 10^6 cells/well). […] Absorbance was measured at 405 nm using a microplate reader.

hyaluronidase = biological target: T2, hyaluronidase (Bos taurus, UniProt Q2YDK3); details: cited from earlier work; for Inhibition of active hyaluronidase: 2 mM
T2 sequence (Q2YDK3 36-553): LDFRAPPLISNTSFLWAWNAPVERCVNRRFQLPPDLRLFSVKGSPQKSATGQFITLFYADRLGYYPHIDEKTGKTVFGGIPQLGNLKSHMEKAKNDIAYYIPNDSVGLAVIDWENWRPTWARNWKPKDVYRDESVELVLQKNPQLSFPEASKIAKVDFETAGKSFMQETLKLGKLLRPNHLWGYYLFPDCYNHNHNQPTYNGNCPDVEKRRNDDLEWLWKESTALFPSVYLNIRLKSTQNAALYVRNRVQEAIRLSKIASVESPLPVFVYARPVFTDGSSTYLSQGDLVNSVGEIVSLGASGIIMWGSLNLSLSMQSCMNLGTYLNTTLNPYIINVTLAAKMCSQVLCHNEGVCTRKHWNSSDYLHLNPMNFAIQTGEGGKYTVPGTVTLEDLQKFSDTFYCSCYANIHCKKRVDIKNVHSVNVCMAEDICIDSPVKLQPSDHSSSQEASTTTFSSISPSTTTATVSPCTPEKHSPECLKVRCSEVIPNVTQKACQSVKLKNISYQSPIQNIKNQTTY

[16] = equivalent value for the compounds
[17] = value for the extracts and fractions
[18] = inhibition percentage 'at an IC50', concentration not otherwise stated

T1 sequence (P00772 27-266): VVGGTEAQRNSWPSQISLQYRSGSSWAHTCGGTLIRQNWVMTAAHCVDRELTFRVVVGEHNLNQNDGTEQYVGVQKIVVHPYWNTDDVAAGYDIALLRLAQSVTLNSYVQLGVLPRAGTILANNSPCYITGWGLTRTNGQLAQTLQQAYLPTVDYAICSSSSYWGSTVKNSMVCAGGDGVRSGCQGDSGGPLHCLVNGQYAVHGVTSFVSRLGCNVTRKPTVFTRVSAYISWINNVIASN

Cc1c2oc3c(C)ccc(C(=O)N[C@@H]4C(=O)N[C@H](C(C)C)C(=O)N5CCC[C@H]5C(=O)N(C)CC(=O)N(C)[C@@H](C(C)C)C(=O)O[C@@H]4C)c3nc-2c(C(=O)N[C@@H]2C(=O)N[C@H](C(C)C)C(=O)N3CCC[C@H]3C(=O)N(C)CC(=O)N(C)[C@@H](C(C)C)C(=O)O[C@@H]2C)c(N)c1=O [ACTD, Actinomycin D, reference compound] (I: T[dV]P[Sar][NMeV] / II: T[dV]P[Sar][NMeV]; ester I:1-I:C, II:1-II:C; linker I:N-II:N via Actinocin(9to1))
CC50 at 72 h [1]: 0.0184 µg/mL and 9 nM | CC50 at 72 h [2]: 0.0192 µg/mL and 9 nM | CC50 at 72 h (NR viability assay, HMCB): 0.0161 µg/mL and 7 nM | IC50 [3, 16]: 0.008 µM | IC50 [3, 17]: 0.01 µg/mL | CC50 at 72 h (NR viability assay, WS1): 0.0173 µg/mL and 8 nM

COC(=O)[C@]12CCC(C)(C)C[C@H]1[C@H]1C(=O)C=C3[C@@]4(C)C=C(C#N)C(=O)C(C)(C)[C@@H]4CC[C@@]3(C)[C@]1(C)CC2 [CDDO-Me, 2-Cyano-3,12-dioxo-oleana-1,9(11)-dien-28-oic acid methyl ester, reference compound]
EC50 (Nrf2 [4]; [16]): 0.00011 µM | EC50 (Nrf2 [4]; [17]): 0.07 ng/mL | EC50 (Nrf2 [5]): 8e-05 µg/mL and 0.13 nM | EC50 (Nrf2 [6]): 7e-05 µg/mL and 0.1 nM | EC50 (Nrf2 [7]): 5e-05 µg/mL and 0.08 nM | EC50 (Nrf2 [8]): 6e-05 µg/mL and 0.09 nM

CC1=C(O)C(=O)C=C2C1=CC=C1[C@@]2(C)CC[C@@]2(C)[C@@H]3C[C@](C)(C(=O)O)CC[C@]3(C)CC[C@]12C [Celastrol, reference compound]
IC50 (NF-κB [9]; [16]): 7.41 µM | IC50 (NF-κB [9]; [17]): 3.34 µg/mL | IC50 (NF-κB [10]): 7.36 µM and 3.27 µg/mL | IC50 (NF-κB [11]): 7.57 µM and 3.33 µg/mL | IC50 (NF-κB [12]): 7.41 µM and 3.29 µg/mL | IC50 (NF-κB [13]): 7.62 µM and 3.35 µg/mL

O=C(O[C@@H]1Cc2c(O)cc(O)cc2O[C@@H]1c1cc(O)c(O)c(O)c1)c1cc(O)c(O)c(O)c1 [EGCG, Epigallocatechin gallate, reference compound]
Collagenase Inhibition (%) (collagenase; [18]): 98.81 ± 1.42% and 95.29 ± 2.09% | Anti-Collagenase IC50 (collagenase; marked (*)): 114 µg/mL and 114.04 ± 3.07 µg/mL | IC50 (collagenase; read-out: Anti-Collagenase IC50): 250 µM and 251 µM | Elastase Inhibition (%) [14, 18]: 98.08 ± 1.74% and 94.44 ± 1.30% | Anti-Elastase IC50 ([14]; marked (*)): 114 µg/mL and 114.38 ± 3.07 µg/mL | IC50 ([14]; read-out: Anti-Elastase IC50): 250 µM

O=c1cc(CO)occ1O [Kojic acid, reference compound]
IC50 [15]: 16.4 µM

COc1ccc(/C=C/C(=O)Nc2ccccc2C(=O)O)cc1OC [Tranilast]
Inhibition of active hyaluronidase (hyaluronidase; activator added): 50% | Inhibition of active hyaluronidase (hyaluronidase): 75%

O=C(O)/C=C/c1ccccc1 [trans-cinnamic acid]
Hyaluronidase inhibition (hyaluronidase): more than 60%
